From patent US8188301B2, “Disubstituted phenylpyrrolidines as modulators of cortical catecholaminergic neurotransmission” (NSAB, Filial af NeuroSearch Sweden AB, Sverige, priority 2007, dated 2012)
Where a name gives a salt, the structure may show the parent alone. Read-outs that look alike come from different tables or passages of the source.

What was measured:
[1] = test system: DOPAC levels (3,4-dihydroxyphenylacetic acid) in the rat striatum; assay: Tissue content of DOPAC in rat striatum after systemic administration of test compound (in vivo neurochemistry); details: for change in vivo at 100 µmol/kg: sc, 1 h
Method: The measurement of the tissue content of DOPAC is well established in the field of research since the 1960's. In short, male Sprague-Dawely rats are administered the test compound 60 minutes prior to decapitation. The brain is rapidly taken out and dissected. The striatum is rapidly frozen and subsequently quantitatively analysed with respect to its content of DOPAC by means of HPLC and electrochemical detection. The number of animals used for each test compound/vehicle is 4/group.
Male Sprague-Dawley rats weighing 220-320 g are used throughout the experiments. Sixty (60) minutes following administration of the test substance, the rats are decapitated. Directly after decapitation the brain is removed from the skull and put on a glass petri bowl filled with ice. The limbic system (containing the nucleus accumbens—both the core and shell, most parts of the olfactory tubercle and ventral pallidum) is dissected using two thin, angled tweezers and put directly on foil on dry ice (carbon dioxide −78° C.). The striatum and cortex are then dissected and also put on dry ice. The time from decapitation until the last tissue is dissected varies from four to six minutes. The tissue is weighed using a Sartorius BP3105 connected to a computer and packed in labelled tin foil, then stored in an −80° C. freezer. Great care is taken in order to keep the tissue frozen until the time of neurochemical analysis. Each brain part is subsequently analyzed with respect to its content of monoamines and their metabolites.
The monoamine transmitter substances (NE (norepinephrine), DA (dopamine), 5-HT (serotonin)) as well as their amine (NM (normethanephrine), 3-MT (3-methoxy-tyramine)) and acid (DOPAC (3,4-dihydroxyphenylacetic acid), 5-HIAA (5-hydroxyindoleacetic acid), HVA (homovanillic acid)) metabolites are quantified in brain tissue homogenates by HPLC separations and electrochemical detection.
The analytical method is based on two chromatographic separations dedicated for amines or acids. Two chromatographic systems share a common auto injector with a 10-port valve and two sample loops for simultaneous injection on the two systems. Both systems are equipped with a reverse phase column (Luna C18(2), dp 3 μm, 50*2 mm i.d., Phenomenex) and electrochemical detection is accomplished at two potentials on glassy carbon electrodes (MF-1000, Bioanalytical Systems, Inc.). The column effluent is passed via a T-connection to the detection cell or to a waste outlet. This is accomplished by two solenoid valves, which block either the waste or detector outlet. By preventing the chromatographic front from reaching the detector, better detection conditions are achieved. The aqueous mobile phase (0.4 mL/min) for the acid system contains citric acid 14 mM, sodium citrate 10 mM, MeOH 15% (v/v) and EDTA 0.1 mM. Detection potentials relative to Ag/AgCl reference are 0.45 and 0.60V. The aqueous ion pairing mobile phase (0.5 mL/min) for the amine system contains citric acid 5 mM, sodium citrate 10 mM, MeOH 9% (v/v), MeCN 10.5% (v/v), decane sulfonic acid 0.45 mM, and EDTA 0.1 mM. Detection potentials relative to Ag/AgCl reference are 0.45 and 0.65V.

[2] = test system: DOPAC levels (3,4-dihydroxyphenylacetic acid) in the rat striatum; details: 100 μmol/kg s.c., %-increase from control value, data taken from Table 2 in Ref 1 (J. Med. Chem. 1994, 37, 2735); cited from earlier work
[3] = test system: extracellular levels of dopamine, norepinephrine and serotonin in p.f. cortex and striatum; assay: In vivo microdialysis in awake and freely moving rats; set-up: species or system rat; details: 10 mg/kg s.c., FIG. 21
[4] = rat striatum, 100 μmol/kg s.c., %-increase from control value, 60 minutes after administration
[5] = Rattus norvegicus, read-out: DOPAC %-increase, rat striatum, 100 μmol/kg s.c., %-increase from control value, 60 minutes after administration

SMILES | DOPAC %-increase [1, 4] | change in vivo at 100 µmol/kg [1, 5] [%] | also measured
CCN1CCC(O)(c2cc(F)cc(F)c2)C1 (single isomer, unassigned; (+)) [Example 2, (+)-3-(3,5-DIFLUOROPHENYL)-1-ETHYLPYRROLIDIN-3-OL] | −16% | – | –
CCN1CCC(O)(c2cccc(F)c2F)C1 (single isomer, unassigned; (+)) [Example 36, (+)-3-(2,3-DIFLUOROPHENYL)-1-ETHYLPYRROLIDIN-3-OL] | −15% | – | –
OC1(c2cccc(F)c2F)CCN(CCC(F)(F)F)C1 (single isomer, unassigned; (-)) (as salt: oxalic acid salt) [Example 48, (−)-3-(2,3-DIFLUOROPHENYL)-1-(3,3,3-TRIFLUOROPROPYL)PYRROLIDIN-3-OL] | – | – | melting point: 144 °C
CCN1CCC(O)(c2cc(F)cc(F)c2)C1 (single isomer, unassigned; (-)) [Example 1, (−)-3-(3,5-DIFLUOROPHENYL)-1-ETHYLPYRROLIDIN-3-OL] | 0% | – | –
CCN1CCC(O)(c2cccc(F)c2F)C1 (single isomer, unassigned; (-)) [Example 32, (−)-3-(2,3-DIFLUOROPHENYL)-1-ETHYLPYRROLIDIN-3-OL] | +8% | – | –
CCN1CCC(O)(c2ccc(F)c(Cl)c2)C1 (stereo not drawn) [Example 3, 3-(3-CHLORO-4-FLUOROPHENYL)-1-ETHYLPYRROLIDIN-3-OL] | – | -28 | –
CCN1CCC(O)(c2cccc(F)c2F)C1 (stereo not drawn) [Example 4, 3-(2,3-DIFLUOROPHENYL)-1-ETHYLPYRROLIDIN-3-OL] | −10% | – | –
CCN1CCC(O)(c2cc(F)cc(Cl)c2)C1 (stereo not drawn) [Example 5, 3-(3-CHLORO-5-FLUOROPHENYL)-1-ETHYLPYRROLIDIN-3-OL] | – | -26 | –
CCN1CCC(O)(c2cc(Cl)cc(Cl)c2)C1 (stereo not drawn) [Example 6, 3-(3,5-DICHLOROPHENYL)-1-ETHYLPYRROLIDIN-3-OL] | – | -10 | –
CCCN1CCC(O)(c2ccc(F)c(F)c2)C1 (stereo not drawn) [Example 7, 3-(3,4-DIFLUOROPHENYL)-1-PROPYLPYRROLIDIN-3-OL] | – | 0 | –
CCN1CCC(O)(c2cc(F)cc(F)c2)C1 (stereo not drawn) [Example 8, 3-(3,5-DIFLUOROPHENYL)-1-ETHYLPYRROLIDIN-3-OL] | −24% | – | –
CCCN1CCC(O)(c2cc(F)cc(F)c2)C1 (stereo not drawn) [Example 9, 3-(3,5-DIFLUOROPHENYL)-1-PROPYLPYRROLIDIN-3-OL] | – | -5 | –
CCN1CCC(O)(c2ccc(Cl)c(Cl)c2)C1 (stereo not drawn) [Example 10, 3-(3,4-DICHLOROPHENYL)-1-ETHYLPYRROLIDIN-3-OL] | – | -26 | –
CN1CCC(F)(c2cc(F)cc(F)c2)C1 (stereo not drawn) [Example 11, 3-(3,5-DIFLUOROPHENYL)-3-FLUORO-1-METHYLPYRROLIDINE] | – | – | change in vivo at 100 µmol/kg ([1]; rat striatum, 100 μmol/kg s.c., %-increase from control value, 60 minutes after administration, read-out: DOPAC %-increase): -4%
CCN1CCC(O)(c2ccc(F)c(F)c2)C1 (stereo not drawn) [Example 12, 3-(3,4-DIFLUOROPHENYL)-1-ETHYLPYRROLIDIN-3-OL] | – | -19 | –
CCCN1CCC[C@@H](c2cccc(S(C)(=O)=O)c2)C1 [Example 16 of ref. 1] | – | – | DOPAC %-increase [2]: +150^2%
CN1CCN2c3ncccc3Cc3ccccc3C2C1 (stereo not drawn) [mirtazapine] | – | – | cortical NE levels [3]: marked increases in cortical NE levels; extracellular norepinephrine and dopamine in the cortex [3]: increase predominantly extracellullar norepinephrine and dopamine in the cortex
